Data from patent US20220184071A1, “GEPOTIDACIN FOR USE IN THE TREATMENT OF BACTERIAL URINARY TRACT INFECTIONS” (GlaxoSmithKline Intellectual Property Development Limited, priority 2019, published 2022).
≈ marks a conversion by molar mass, not a printed value. Read-outs that look alike come from different tables or passages of the source. Marks after values point to notes of the source that are not given here.

Key:
[1] = test system: Staphylococcus saprophyticus; assay: MIC by CLSI broth microdilution in CAMHB and urine, Example 1 Method 3; assay type: cell-based; conditions: for Mean MIC: n = 6
Experimental: Antimicrobial activity was determined by broth microdilution using the CLSI recommended procedure.
(§1) The compounds were tested in serial two-fold dilutions and the minimum inhibitory concentration (MIC) was determined as the lowest concentration of the compound that inhibited visible growth.
In particular, gepotidacin was tested against 6 strains of Staphylococcus saprophyticus from the collection of isolates at Laboratory Specialists, Inc., Westlake, Ohio.
Levofloxacin was included as the comparator in the study to determine the effect of urine on the in vitro activity of gepotidacin against Staphylococcus saprophyticus. MICs were determined by broth microdilution according CLSI methods.
(§2) The data shown in the table below are results from an in vitro study conducted with the same S. saprophyticus isolates described above, to determine the effect of urine on the in vitro activity of gepotidacin and levofloxacin against S. saprophyticus. Study strains were tested for MICs (minimum inhibitory concentrations) according to reference CLSI broth microdilution method using cation-adjusted Mueller Hinton Broth (CAMHB) and with the addition of 25%, 50% and 100% urine (not pH adjusted, pH 6.42) and 100% urine (pH adjusted, 7.31 and 8.07).

[2] = test system: Staphylococcus epidermidis; assay: MIC by CLSI broth microdilution in CAMHB and urine, Example 5 Method 2; assay type: cell-based; conditions: for Mean MIC: n = 4
Experimental: as §1
In particular, gepotidacin was tested against 4 strains of Staphylococcus epidermidis from the collection of isolates at Laboratory Specialists, Inc., Westlake, Ohio.
Levofloxacin was included as the comparator in the study to determine the effect of urine on the in vitro activity of gepotidacin against Staphylococcus epidermidis. MICs were determined by broth microdilution according CLSI methods.
as §2, with “epidermidis” for “saprophyticus”, “epidermidis.” for “saprophyticus.”, “MICs” for “MICs (minimum inhibitory concentrations)”

qualifying uropathogens = assay: Phase IIa baseline uropathogen susceptibility testing (CLSI broth microdilution); assay type: cell-based
Experimental: (§3) This phase IIa single center study evaluated the safety, tolerability, pharmacokinetics, and efficacy of oral gepotidacin 1500 mg BID for 5 days in female subjects with acute cystitis. Clean catch mid-stream urine specimens were obtained for quantitative culture by standard methods. Urine samples were taken from all participants pre-treatment (baseline) and at all post-baseline visits. All urine samples were sent to a central laboratory (PPD Global Clinical Laboratories, Highland Heights, Ky., USA) for Gram stain, quantitative culture, pathogen identification and susceptibility testing. See FIG. 1 for participant disposition and study outline.
(§4) Susceptibility testing by CLSI broth microdilution and gradient diffusion (fosfomycin only) was conducted (CLSI, 2015, Methods for dilution antimicrobial susceptibility tests for bacteria that grow aerobically; approved standard-tenth edition; and CLSI, 2018. Performance Standards for Antimicrobial Susceptibility Testing; Twenty-seventh Informational Supplement M100-S28). Inclusion in the microbiological intent-to-treat population (micro-ITT), required growth of a qualifying baseline uropathogen (≥10^5 CFU/mL). See FIG. 2 for the baseline algorithm.

[3] = test system: all the gram-negative anaerobe organisms combined; assay: MIC by CLSI agar dilution, Example 6 Method 1; assay type: cell-based; conditions: all gram-negative anaerobes combined; for MIC90: read-out: overall MIC90
Experimental: (§5) Antimicrobial activity was determined by agar dilution using the Clinical and Laboratory Standards Institute (CLSI) recommended procedure.
(§6) The compounds were tested in serial two-fold dilutions and the minimum inhibitory concentration (MIC) was determined as the lowest concentration of the compound that inhibited visible growth. Gepotidacin was tested against 333 gram-negative anaerobic and 203 gram-positive anaerobic isolates collected from clinical samples in North America and Europe from 2000 to 2017; the majority collected from 2013 to 2016.
(§7) Ceftriaxone, clindamycin, imipenem, metronidazole, moxifloxacin and piperacillin/tazobactam were included as comparators.

[4] = test system: gram-positive anaerobe organisms combined; assay: MIC by CLSI agar dilution, Example 6 Method 1; assay type: cell-based; conditions: gram-positive anaerobes combined; for MIC90: read-out: overall MIC90
Experimental: as §5, §6, §7

E. coli = assay: Phase IIa baseline uropathogen susceptibility testing (CLSI broth microdilution); assay type: cell-based, Escherichia coli; conditions: baseline visit
Experimental: as §3, §4

C. koseri = assay: as above; assay type: cell-based, Citrobacter koseri; conditions: baseline isolate
Experimental: as §3, §4

K. pneumoniae = assay: as above; assay type: cell-based, Klebsiella pneumoniae; conditions: baseline isolate
Experimental: as §3, §4

viridans streptococci = assay: MIC by CLSI broth microdilution, Example 5 Method 1; assay type: cell-based; conditions: 105 isolates
Experimental: Gepotidacin was tested against 101 coagulase-negative staphylococci and 105 viridans streptococci in serial two-fold dilutions and the minimum inhibitory concentration (MIC) was determined as the lowest concentration of the compound that inhibited visible growth. All of the clinical isolates were collected in 2009-2012 from patient infections from North America, Europe, Latin America and Asia-Pacific medical centers and were mainly obtained from patients with documented nosocomial and community-acquired respiratory tract infections, bloodstream infections and skin and skin structure infections. Ceftriaxone, meropenem, penicillin, levofloxacin, moxifloxacin and linezolid were included as comparators when testing the viridans streptococci isolates. Oxacillin, levofloxacin, moxifloxacin and linezolid, were included as comparators when testing the coagulase-negative staphylococci isolates. MICs were determined by broth microdilution according to CLSI methods.

[5] = Escherichia coli, Participant #2 (E. coli), read-out: MIC
[6] = Escherichia coli, Participant #3 (E. coli), read-out: MIC
[7] = Escherichia coli, Participant #4 (E. coli), read-out: MIC
[8] = Escherichia coli, Participant #5 (E. coli, MDR and fluoroquinolone-resistant), read-out: MIC
[9] = Escherichia coli, Participant #6 (E. coli, MDR), read-out: MIC

Molecule: C[C@H]1COc2c(N3CCN(C)CC3)c(F)cc3c(=O)c(C(=O)O)cn1c23 [Levofloxacin, reference compound]
- Mean Dilution Difference ([1]; 25% Urine (pH 7.09) vs CAMHB): 0.50
- Mean difference ([1]; 25% Urine (pH 7.09) vs CAMHB): 0.33
- N(%) ± 1 dilution ([1]; 25% Urine (pH 7.09) vs CAMHB): 6 (100%)
- N(%) ± 2 dilution ([1]; 25% Urine (pH 7.09) vs CAMHB): 6 (100%)
- Mean MIC ([1]; 25% Urine (pH 7.09)): 1.12 mg/L
- Mean Dilution Difference ([1]; 50% Urine (6.99) vs CAMHB): 0.17
- Mean difference ([1]; 50% Urine (6.99) vs CAMHB): 0.10
- N(%) ± 1 dilution ([1]; 50% Urine (6.99) vs CAMHB): 6 (100%)
- N(%) ± 2 dilution ([1]; 50% Urine (6.99) vs CAMHB): 6 (100%)
- Mean MIC ([1]; 50% Urine (6.99)): 0.89 mg/L
- Mean Dilution Difference ([1]; 100% Urine (pH 6.42) vs CAMHB): 0.67
- Mean difference ([1]; 100% Urine (pH 6.42) vs CAMHB): 0.47
- N(%) ± 1 dilution ([1]; 100% Urine (pH 6.42) vs CAMHB): 6 (100%)
- N(%) ± 2 dilution ([1]; 100% Urine (pH 6.42) vs CAMHB): 6 (100%)
- Mean MIC ([1]; 100% Urine (pH 6.42)): 1.26 mg/L
- Mean Dilution Difference ([1]; 100% Urine (pH 7.31) vs CAMHB): 1.50
- Mean difference ([1]; 100% Urine (pH 7.31) vs CAMHB): 1.45
- N(%) ± 1 dilution ([1]; 100% Urine (pH 7.31) vs CAMHB): 2 (33.3%)
- N(%) ± 2 dilution ([1]; 100% Urine (pH 7.31) vs CAMHB): 6 (100%)
- Mean MIC ([1]; 100% Urine (pH 7.31)): 2.24 mg/L
- Mean Dilution Difference ([1]; 100% Urine (pH 8.07) vs CAMHB): 1.17
- Mean difference ([1]; 100% Urine (pH 8.07) vs CAMHB): 0.99
- N(%) ± 1 dilution ([1]; 100% Urine (pH 8.07) vs CAMHB): 5 (83.3%)
- N(%) ± 2 dilution ([1]; 100% Urine (pH 8.07) vs CAMHB): 6 (100%)
- Mean MIC ([1]; 100% Urine (pH 8.07)): 1.78 mg/L
- Mean MIC ([1]; CAMHB (ref. method, pH 7.2)): 0.79 mg/L
- Mean Dilution Difference ([2]; 25% Urine (pH 7.09) vs CAMHB): 0.25
- Mean difference ([2]; 25% Urine (pH 7.09) vs CAMHB): 0.03
- N(%) ± 1 dilution ([2]; 25% Urine (pH 7.09) vs CAMHB): 4 (100%)
- N(%) ± 2 dilution ([2]; 25% Urine (pH 7.09) vs CAMHB): 4 (100%)
- Mean MIC ([2]; 25% Urine (pH 7.09)): 0.17 mg/L
- Mean Dilution Difference ([2]; 50% Urine (6.99) vs CAMHB): 0.25
- Mean difference ([2]; 50% Urine (6.99) vs CAMHB): 0.03
- N(%) ± 1 dilution ([2]; 50% Urine (6.99) vs CAMHB): 4 (100%)
- N(%) ± 2 dilution ([2]; 50% Urine (6.99) vs CAMHB): 4 (100%)
- Mean MIC ([2]; 50% Urine (6.99)): 0.17 mg/L
- Mean Dilution Difference ([2]; 100% Urine (pH 6.42) vs CAMHB): 0.51
- Mean difference ([2]; 100% Urine (pH 6.42) vs CAMHB): 0.06
- N(%) ± 1 dilution ([2]; 100% Urine (pH 6.42) vs CAMHB): 4 (100%)
- N(%) ± 2 dilution ([2]; 100% Urine (pH 6.42) vs CAMHB): 4 (100%)
- Mean MIC ([2]; 100% Urine (pH 6.42)): 0.21 mg/L
- Mean Dilution Difference ([2]; 100% Urine (pH 7.31) vs CAMHB): 0.78
- Mean difference ([2]; 100% Urine (pH 7.31) vs CAMHB): 0.10
- N(%) ± 1 dilution ([2]; 100% Urine (pH 7.31) vs CAMHB): 3 (75%)
- N(%) ± 2 dilution ([2]; 100% Urine (pH 7.31) vs CAMHB): 4 (100%)
- Mean MIC ([2]; 100% Urine (pH 7.31)): 0.25 mg/L
- Mean Dilution Difference ([2]; 100% Urine (pH 8.07) vs CAMHB): 1.78
- Mean difference ([2]; 100% Urine (pH 8.07) vs CAMHB): 0.35
- N(%) ± 1 dilution ([2]; 100% Urine (pH 8.07) vs CAMHB): 2 (50%)
- N(%) ± 2 dilution ([2]; 100% Urine (pH 8.07) vs CAMHB): 3 (75%)
- Mean Dilution Difference ([2]; 100% Urine (pH 8.07) vs CAMHB, listed as levofloxacin): approximately 1.8
- Mean MIC ([2]; 100% Urine (pH 8.07)): 0.5 mg/L
- Mean MIC ([2]; CAMHB (ref. method, pH 7.2)): 0.15 mg/L

Molecule: piperacillin/tazobactam
- Resistance among the baseline uropathogens recovered (qualifying uropathogens): None of the baseline uropathogens recovered were resistant
- overall MIC90 [3]: 16 mg/L
- overall MIC90 [4]: 16 mg/L

Molecule: Cc1nnc(SCC2=C(C(=O)O)N3C(=O)[C@@H](NC(=O)Cn4cnnn4)[C@H]3SC2)s1 [Cefazolin]
- MIC (E. coli; [5]): 2 mg/L (≈ 4.4 µM)
- MIC (E. coli; [6]): 4 mg/L (≈ 8.8 µM)
- MIC (E. coli; [7]): 2 mg/L (≈ 4.4 µM)
- MIC (E. coli; [8]): 4 mg/L (≈ 8.8 µM)
- MIC (E. coli; [9]): 32 mg/L (≈ 70.4 µM)

Molecule: CCC[C@@H]1C[C@@H](C(=O)N[C@@H]([C@H]2O[C@H](SC)[C@H](O)[C@@H](O)[C@H]2O)[C@H](C)Cl)N(C)C1 [clindamycin]
- MIC90 [3]: > 8 mg/L
- MIC90 [4]: > 8 mg/L

Molecule: C[C@@H](O)[C@H]1C(=O)N2C(C(=O)O)=C(SCCN=CN)C[C@H]12 [imipenem]
- MIC90 [3]: 0.5 mg/L
- MIC90 [4]: 8 mg/L

Molecule: C[C@@H]1O[C@@H]1P(=O)(O)O [fosfomycin]
- Resistance among the baseline uropathogens recovered (qualifying uropathogens): None of the baseline uropathogens recovered were resistant

Molecule: CO/N=C(\C(=O)N[C@@H]1C(=O)N2C(C(=O)O)=C(CSc3nc(=O)c(=O)[nH]n3C)CS[C@H]12)c1csc(N)n1 [ceftriaxone]
- MIC90 [3]: 512 mg/L
- MIC90 [4]: 256 mg/L

Molecule: Trimethoprim-sulfamethoxazole
- MIC (E. coli; Participant #2 (E. coli)): 0.03 mg/L
- MIC (E. coli; Participant #3 (E. coli)): 0.03 mg/L
- MIC (E. coli; Participant #4 (E. coli)): 0.03 mg/L
- MIC (E. coli; Participant #5 (E. coli, MDR and fluoroquinolone-resistant)): >8^b μg/mL
- MIC (E. coli; Participant #6 (E. coli, MDR)): >8^b μg/mL

Molecule: CC1(C)S[C@@H]2[C@H](NC(=O)[C@H](N)c3ccccc3)C(=O)N2[C@H]1C(=O)O [Ampicillin]
- MIC (E. coli; [5]): > 64 mg/L
- MIC (E. coli; [6]): 2 mg/L (≈ 5.72 µM)
- MIC (E. coli; [7]): 1 mg/L (≈ 2.86 µM)
- MIC (E. coli; [8]): > 64 mg/L
- MIC (E. coli; [9]): > 64 mg/L
- Susceptibility of the qualifying uropathogen (C. koseri): resistant
- Susceptibility of the qualifying uropathogen (K. pneumoniae): resistant

Molecule: Cc1ncc([N+](=O)[O-])n1CCO [metronidazole]
- MIC90 [3]: 2 mg/L
- MIC90 [4]: 0.5 mg/L

Molecule: C[C@@H](O)[C@H]1C(=O)N2C(C(=O)O)=C(S[C@@H]3CN[C@H](C(=O)N(C)C)C3)[C@H](C)[C@H]12 [meropenem]
- Resistance among the baseline uropathogens recovered (qualifying uropathogens): None of the baseline uropathogens recovered were resistant
- MIC90 (viridans streptococci): 0.25 mg/L (≈ 0.652 µM)

Molecule: COc1c(N2C[C@@H]3CCCN[C@@H]3C2)c(F)cc2c(=O)c(C(=O)O)cn(C3CC3)c12 [moxifloxacin]
- MIC90 (viridans streptococci): 0.25 mg/L (≈ 0.623 µM)
- MIC90 [3]: 8 mg/L
- MIC90 [4]: > 8 mg/L
